Like-named read-outs stand apart in the source and are kept apart here.
Columns and labels:
MA9.3RAS AML cells = test: MTT cytotoxicity assay in MA9.3RAS AML cells; assay type: cell-based, human
Protocol: (§1) Cells were seeded at a density of 4×10^4 cells/well in a 96-well plate and incubated at 37° C. overnight. Then cells were treated for 48 hours with indicated concentrations of freshly dissolved compounds. The plates were centrifuged at 1500×g for 5 minutes at 4° C. to pellet the cells and the medium containing compounds was discarded; fresh medium containing 20 μL of MTT (5 mg/mL) was added to each well and incubated for an additional 4 h. The medium was removed. After adding 200 μL of DMSO to each well, the optical densities at 575 nm were determined. Cytotoxicity data are expressed as IC50 values obtained from the fit to a four parameter sigmoid using the graphing software KaleidaGraph (Synergy Software). All R^2 values were greater than 0.98 and standard errors of the three replicates were less than 20%.
Structural components within 1 were then probed to determine effect on potency. The goal was to obtain activity that matched the two natural products, PTL and PLG, which show efficacy in tumor xenografts in mice. As a model system cytotoxicity of synthesized agents in the MA9.3RAS AML cell line was examined. These cells are transformed CD34^+ human blood stem cells engineered to express both an MLL-AF9 fusion protein and the common oncogene NrasG12D. Culturing was accomplished as previously described by Wunderlich, et al., Leukemia 24(10):1785-88 (2010). The molecular signatures associated with these cells closely mimic those identified in primary AML patient samples and the MLL-fusion is associated with poor survival. Cytotoxicity studies were performed in triplicates using an MTT cell proliferation assay. All MTT assays were repeated twice.

[1] = system: CD34+ selected human umbilical cord blood cells (UCB); test: MTT cytotoxicity assay in CD34+ selected umbilical cord blood cells (normal blood stem cells); assay type: cell-based; settings: for IC50: CD34+ selected human umbilical cord blood cells, 48 hours treatment, MTT, read-out: IC50 against UCB
Protocol: as §1
(§2) The selectivity of select compounds was examined by treatment of primary CD34^+ normal human blood stem cells. These are untransformed and are genetically similar to MA9.3RAS cells except they lack the MLL-AF9 oncogene and active Nras^G12D oncogene. It is essential that reactive agents be selective since off-target reactivity is of great concern. In anti-cancer compounds, a selectivity factor, which in this instance is the ratio between the IC50 of normal cells over the IC50 of the AML cells, of one log unit is desired. Compound 1 is marginally selective with a ratio of 2.0±0.2. […] Conversion of the aniline to an alkyl amine led to improved selectivity.

[2] = system: CD34+ normal human blood stem cells vs MA9.3RAS AML cells; test: Selectivity factor: ratio of IC50 of normal cells over IC50 of AML cells; assay type: cell-based; settings: for selectivity factor (ratio of IC50 of normal cells over IC50 of AML cells): CD34+ normal human blood stem cells / MA9.3RAS AML cells
Excerpt: as §2

[3] = Oxidation of compound 14, HPLC analysis; assay type: physicochemical
Protocol: These products were produced via both spontaneous and hydrogen-peroxide induced oxidation but not under an argon atmosphere (FIG. 4C right hand side). […] Importantly, addition of one molar equivalent hydrogen peroxide led to a near instantaneous conversion to the oxidized products. Using the lower limit of t1/2 less than 1 min leads to a large rate enhancement. Initially, the two products were isolated and a high-resolution MS was obtained on both. […] Several tautomers of 14-ox are possible (see FIG. 5A).

AML cells = test: Cellular ROS level by DCF fluorescence assay; assay type: cell-based
Protocol: Though it is widely accepted that bulk AML cells have elevated concentrations of reactive oxygen, it was desirable to ensure that the instant models had higher levels of ROS than healthy cells. CD34+ blood stem cells were harvested from three donors. Cells were counted, incubated with 2,7-dihydrodichlorofluorescein (DCF) diacetate, and their respective fluorescence compared after 30 min (FIG. 7). After deacylation, DCF is oxidized by a broad spectrum of ROS species and oxidases. Thus is a marker of general ROS and oxidation within cells. The three CD34+ selected UCB cell populations each derived from different healthy donors referred as #1 through #3 (FIG. 7) had fluorescence intensity of 0.69±0.03 (p<0.002), 0.60±0.03 (p<10^−6), 0.54±0.02 (p<10^−6) compared to 1.00±0.02 in the AML cell model.
In order for 14 to be ROS-activatable, it needs to enter a cell and react with hydrogen peroxide, thereby lowering a cell's total ROS level as measured by DCF fluorescence (FIG. 8A). It should be noted that because 14 is highly lethal, concentrations ten-fold higher than the IC50 are required to lower a cell's ROS level. […] Similar experiments lacking addition of 14 show statistically significant increases in fluorescence intensities (p<0.001 for all time points while pretreated data set was not statistically significant from each other) with the endpoint having an intensity of 5.02±0.08.

KEAP1 = test: Western blot against KEAP1 normalized to beta-actin; assay type: cell-based; settings: AML cells
Protocol: Finally, reactivity of 14 in a cell was examined (FIG. 8B). To accomplish this, western blot against KEAP1, normalized to beta-actin was performed. KEAP1 is a signaling molecule that inhibits NRF2^25, the transcription factor that regulates anti-oxidant concentrations in cells.

[4] = system: UT (healthy untransformed cells); test: IC50 panel, healthy untransformed cells; assay type: cell-based
Excerpt: (§3) Selectivity of compound 14 was examined by measuring IC50 against a variety of cell types, including AML cells obtained from individuals as well as common cell lines and healthy untransformed cells.

[5] = system: A_MA9 (Individual 1 transformed with MLL-AF9 fusion); test: IC50 panel, A_MA9; assay type: cell-based
Excerpt: as §3

[6] = system: A_MA9 + FLT3 (Individual 1 transformed with MLL-AF9 and FLT3-ITD); test: IC50 panel, A_MA9 + FLT3; assay type: cell-based
Excerpt: as §3

[7] = system: A_MA9 + Nras (Individual 1 transformed with MLL-AF9 and NrasG12D); test: IC50 panel, A_MA9 + Nras; assay type: cell-based
Excerpt: as §3

[8] = system: B_MA9 (Individual 2 transformed with MLL-AF9); test: IC50 panel, B_MA9; assay type: cell-based
Excerpt: as §3

[9] = system: B_MA9 + FLT3 (Individual 2 transformed with MLL-AF9 and FLT3-ITD); test: IC50 panel, B_MA9 + FLT3; assay type: cell-based
Excerpt: as §3

[10] = system: B_MA9 + Nras (Individual 2 transformed with MLL-AF9 and NrasG12D); test: IC50 panel, B_MA9 + Nras; assay type: cell-based
Excerpt: as §3

[11] = system: HL60 (common AML cell line); test: IC50 panel, HL60; assay type: cell-based; settings: Homo sapiens, HL-60
Excerpt: as §3

[12] = system: MOLM13 (common AML cell line); test: IC50 panel, MOLM13; assay type: cell-based; settings: Homo sapiens, MOLM-13
Excerpt: as §3

[13] = system: Kasumi1 (common AML cell line); test: IC50 panel, Kasumi1; assay type: cell-based; settings: Homo sapiens, Kasumi 1
Excerpt: as §3

[14] = Oxidation of compound 1 to 2 in PBS, HPLC analysis; assay type: physicochemical
Protocol: To mimic cellular addition, 1 was incubated in PBS with limiting N-acetylcysteine and the products were analyzed by HPLC (FIG. 3C). The limiting N-acetylcysteine was necessary due to the formation of multiple addition products, since addition of a thiol to the aromatic ring makes further oxidation and addition easier. Compound 1 was converted to 2 in the absence of exogenous oxidant at a rate of 0.011±0.002 min^−1 (FIG. 3D, grey line), which leads to approximately 50% conversion in one hour. ROS-induced activation of 1 was then assessed. In the presence of 10 mM H2O2, a ten-fold excess, the rate of conversion was enhanced by […] to 0.6±0.1 min^−1. Once 2 was formed, N-acetylcysteine was added and NAC-2 was rapidly produced (FIG. 3C, black line) as confirmed by FTMS (FIG. 3E).

[15] = Homo sapiens, MA9.3RAS AML cell line, MTT cell proliferation assay (Table 2 and text), read-out: IC50
[16] = Homo sapiens, MA9.3RAS, MA9.3 AML cells, MTT assay (Table 3), read-out: IC50

## CN(CC(=O)NC1=CC(=O)C=CC1=O)c1ccccc1 [Compound 2]
MA9.3RAS AML cells; [15]
  IC50: 21 ± 4 µM

## Nc1ccc(O)c(NC(=O)CNC2CCCCC2)c1 [Compound 16, N-(5-amino-2-hydroxyphenyl)-2-(cyclohexylamino)acetamide]
MA9.3RAS AML cells; Homo sapiens, MA9.3RAS, 48 hours treatment, MTT, read-out: IC50 against MA9.3RAS AML cells
  IC50: 3 ± 1 µM
MA9.3RAS AML cells; [16]
  IC50: 5 ± 2 µM
[1]
  IC50: 55 ± 4 µM

## CN(CC(=O)Nc1ccccc1O)c1ccccc1 [Compound 4]
MA9.3RAS AML cells; [15]
  IC50: > 100 µM

## O=C(CNC1CCCCC1)Nc1cc(O)ccc1O [Compound 14, 2-(cyclohexylamino)-N-(2,5-dihydroxyphenyl)acetamide]
MA9.3RAS AML cells; FIG. 6B
  viability of AML cells, in words: eradicated
MA9.3RAS AML cells; [15]
  IC50: 2 µM
[1]
  IC50: 20 ± 2 µM
[1]; concentration that eradicated AML cells, FIG. 6B
  viability of normal blood stem cells, in words: did not affect viability
[2]; AML cells vs normal blood stem cells
  selectivity: 11 fold
[3]
  activation by hydrogen peroxide: more than 150 fold
[3]; hydrogen peroxide (FIG. 4C legend)
  time for complete conversion of 14: less than 0.1 hours
[3]; normal atmosphere, pseudo-zero order kinetics
  t1/2 of oxidation: 2.58 ± 0.217 h
[3]; one molar equivalent hydrogen peroxide
  t1/2 of oxidation: less than 1 min
[3]; two hours under argon atmosphere
  fraction of 14 converted to its oxidation product: 4±3%
AML cells; 20 μM, AML cells
  cellular ROS levels (DCF fluorescence), in words: time dependent loss in cellular ROS levels
AML cells; AML cells treated with 14, end of time course, without 14 5.02±0.08
  DCF fluorescence intensity at endpoint: 4.31±0.08
AML cells; AML cells, start of time course
  DCF fluorescence intensity at addition of 14: 1.06±0.13
KEAP1; 2 μM
  KEAP1 level, in words: statistically significant reduction in KEAP1
KEAP1; after 24 hrs
  relative concentration of KEAP1 (KEAP1 to ACTB): 0.65±0.09
[4]
  IC50: 22 ± 2 µM
[5]
  IC50: 4 ± 0.7 µM
[6]
  IC50: 1.8 ± 0.07 µM
[7]
  IC50: 2.3 ± 0.08 µM
[8]
  IC50: 3.7 ± 0.1 µM
[9]
  IC50: 1.6 ± 0.1 µM
[10]
  IC50: 2.5 ± 0.03 µM
[11]
  IC50: 4 µM
[12]
  IC50: 6 ± 1 µM
[13]
  IC50: 19 ± 3 µM

## O=C(CO)Nc1cc(O)ccc1O [Compound 8]
MA9.3RAS AML cells; [15]
  IC50: 12 ± 3 µM

## O=C(CNC1CCCCC1)Nc1cc([N+](=O)[O-])ccc1O [Compound 17]
MA9.3RAS AML cells; [16]
  IC50: 22 ± 7 µM

## CN(CC(=O)Nc1cc(O)ccc1O)c1ccccc1 [Compound 1]
[14]; PBS, absence of exogenous oxidant
  rate of conversion of 1 to 2: 0.011 ± 0.002 min⁻¹
[14]; absence of exogenous oxidant
  conversion of 1 to 2 in one hour: approximately 50%
[14]; presence of 10 mM H2O2, ten-fold excess
  rate of conversion of 1 to 2: 0.6 ± 0.1 min⁻¹
[14]; with hydrogen peroxide (FIG. 3D legend)
  rate of conversion of 1 into 2: 0.6 min⁻¹

## CCCN(C)CC(=O)Nc1cc(O)ccc1O [Compound 12]
MA9.3RAS AML cells; [15]
  IC50: 18 ± 2 µM

## O=C(CNc1ccccc1)Nc1cc(O)ccc1O [Compound 9]
MA9.3RAS AML cells; [15]
  IC50: 13 ± 2 µM

## CC(=O)Nc1cc(O)ccc1O [Compound 6]
MA9.3RAS AML cells; [15]
  IC50: 35 ± 5 µM
[2]
  selectivity factor (ratio of IC50 of normal cells over IC50 of AML cells): Neither compound 6 nor compound 7 were selective

## COc1cc(/C=C/C(=O)N2CCC=CC2=O)cc(OC)c1OC [PLG, piperlongumine, reference compound]
MA9.3RAS AML cells; [15]
  IC50: 2 ± 1 µM
[2]
  selectivity factor (ratio of IC50 of normal cells over IC50 of AML cells): 3.7±1

## O=C(COc1ccccc1)Nc1cc(O)ccc1O [Compound 10]
[2]
  selectivity factor (ratio of IC50 of normal cells over IC50 of AML cells): limited selectivity

## C[C@@H](NC1CCCCC1)C(=O)Nc1cc(O)ccc1O [Compound 18]
MA9.3RAS AML cells; [16]
  IC50: 104 ± 2 µM

## COc1ccc(OC)c(NC(=O)CN(C)c2ccccc2)c1 [Compound 3]
MA9.3RAS AML cells; [15]
  IC50: > 100 µM

## NC1=CC(=O)C=CC1=O [Compound 7]
MA9.3RAS AML cells; [15]
  IC50: 16 ± 2 µM
[2]
  selectivity factor (ratio of IC50 of normal cells over IC50 of AML cells): Neither compound 6 nor compound 7 were selective

## parthenolide [PTL, reference compound]
MA9.3RAS AML cells; MA9.3RAS AML cell line, MTT cell proliferation assay (Table 2 and text), read-out: IC50
  IC50: 3 ± 1 µM
[2]
  selectivity factor (ratio of IC50 of normal cells over IC50 of AML cells): 2.1±0.4

## O=C(CSc1ccccc1)Nc1cc(O)ccc1O [Compound 11]
[2]
  selectivity factor (ratio of IC50 of normal cells over IC50 of AML cells): limited selectivity

## CN(CC(=O)Nc1cccc(O)c1)c1ccccc1 [Compound 5]
MA9.3RAS AML cells; [15]
  IC50: > 100 µM

## O=C(Nc1cc(O)ccc1O)C(NC1CCCCC1)C1CCCCC1 (stereo not shown) [Compound 19]
MA9.3RAS AML cells; [16]
  IC50: 107 ± 1 µM

— patent publication US10071954B2, “Hydrogen peroxide-activated compounds as selective anti-cancer therapeutics” (University of Cincinnati, priority 2014, dated 2018)
